# Source: article PMC7438908, “Antimicrobial Peptide Reverses ABCB1-Mediated Chemotherapeutic Drug Resistance” (Frontiers in Pharmacology, 2020)
# “Also recorded” adds a separate entry of the source. Like-named read-outs stand apart in the source and are kept apart here. Where no end group is shown, it is not given here.
# Tests used:
# ABCB1 in KB-C2 cells [1] = assay: [3H]-paclitaxel accumulation, KB-C2; type: cell-based, human; details: KB-C2 vs KB-3-1; after 2 hours of incubation; no inhibitor
# Description: (§1) Drug accumulation and efflux assays were performed as previously described ([Fan et al., 2018]). For the drug accumulation assay, KB-C2 and KB-3-1 cells were seeded at 1×10^4 cells per well into 24-well plates and incubated at 37°C overnight. After cells were incubated in the presence or absence of peptide HX-12C and positive reversal agent for 72 h, the medium was replaced by medium containing 5 μM [^3H]-paclitaxel with peptide HX-12C or positive reversal agent. The drug medium was discarded after 2 h incubation, then cells were washed three times with ice-cold PBS and transferred to the scintillation fluid. The drug efflux assay was performed after discarding the drug medium, then cells were washed three times with ice-cold PBS and treated with the medium containing peptide HX-12C or positive reversal agent. There were three different time points (30, 60, and 120 min) at which after changing the medium, the cells were washed three times with ice-cold PBS and collected and transferred to the scintillation fluid. The Packard TRI-CARB1 190`A liquid scintillation analyzer was used to measure radioactivity. A parallel well of cells for each group was set up for cell number counting at the end of assay for the purpose of data normalization.
# ABCB1 in KB-C2 cells [2] = assay: [3H]-paclitaxel efflux, KB-C2; type: cell-based, human; details: without inhibitor treatment, 2 h
# Description: as §1
# KB-3-1 cells [3] = assay: MTT reversal assay, parental KB-3-1; type: cell-based, human; details: no modulator, mean ± SD of at least three independent experiments in triplicate, read-out: IC50 of anticancer drug alone
# Description: (§2) Therefore, we used KB-C2 and its parental cell line KB-3-1 in this study. […] All the cell lines were cultured in DMEM containing 1% penicillin/streptomycin and 10% FBS at 37°C with 5% CO2. All drug-resistant cell lines were cultured in drug-free medium for more than 2 weeks prior to their use.
# (§3) Briefly, 5×10^3 cells per well were evenly seeded in 96-well microplates overnight. For the cytotoxicity assay, peptides and positive control of known substrate anticancer drugs were added in a designated concentration gradient. For the reversal assay, peptides and positive control agents were added 2 h before the addition of anticancer drugs within the specified concentration gradient. The plates were incubated in a culture condition for 68 h followed by the addition of 20 μL MTT solution (4 mg/mL) and further incubation of 4 h. After aspirating the culture medium and MTT solution, the formazan crystals were dissolved with 100 μL DMSO. The absorbance was determined at 570 nm with the accuSkan GO UV/Vis Microplate Spectrophotometer (Fisher Sci., Fair Lawn, NJ).
# HEK293/pcDNA3.1 cells = assay: MTT reversal assay, HEK293/pcDNA3.1; type: cell-based; details: no modulator, mean ± SD of at least three independent experiments in triplicate, read-out: IC50 of anticancer drug alone
# Description: as §2, §3
# HEK293/ABCB1 cells = assay: MTT reversal assay, transfected HEK293/ABCB1; type: cell-based; details: HEK293/ABCB1, read-out: IC50 of anticancer drug alone
# [4] = system: KB-C2 cells (ABCB1-overexpressing); assay: MTT reversal assay, drug-selected ABCB1-overexpressing KB-C2; type: cell-based, human
# Description: as §2, §3
# KB-3-1 cells [5] = assay: MTT cytotoxicity of peptides, parental KB-3-1; type: cell-based, human; details: KB-3-1 parental; modified MTT, 68 h + 4 h MTT, 570 nm; three independent experiments
# Description: as §2, §3
# ABCB1 = target: T1, ABCB1 (Homo sapiens, UniProt P08183); assay: ABCB1 ATPase assay (vanadate-sensitive); type: biochemical; details: insect cell membrane vesicles
# T1 construct: purchased BD Biosciences, San Jose, CA, USA; host or cells: High Five insect cells (membrane vesicles)
# Description: The ABCB1 ATPase activity was measured based on vanadate-sensitive principle as previously described ([Zhang et al., 2016]). The High Five insect cells membrane vesicles (BD Biosciences, San Jose, CA, USA) were first incubated for 5 min in ATPase assay buffer at 37°C with or without 0.3 mM vanadate. Then peptide HX-12C at a concentration of 0 to 40 μM was adding to the assay buffer and incubated at 37°C for 3 min. After adding 5 mM Mg-ATP with a total volume of 0.1 mL, the ATPase reaction was initiated until stopped by adding 100 μL 5% SDS solution after incubation at 37°C for 20 min. The amount of inorganic phosphate (IP) was used to calculate the ATPase activity of ABCB1, detected at 800 nm using a spectrophotometer.
# T1 sequence (P08183 whole entry): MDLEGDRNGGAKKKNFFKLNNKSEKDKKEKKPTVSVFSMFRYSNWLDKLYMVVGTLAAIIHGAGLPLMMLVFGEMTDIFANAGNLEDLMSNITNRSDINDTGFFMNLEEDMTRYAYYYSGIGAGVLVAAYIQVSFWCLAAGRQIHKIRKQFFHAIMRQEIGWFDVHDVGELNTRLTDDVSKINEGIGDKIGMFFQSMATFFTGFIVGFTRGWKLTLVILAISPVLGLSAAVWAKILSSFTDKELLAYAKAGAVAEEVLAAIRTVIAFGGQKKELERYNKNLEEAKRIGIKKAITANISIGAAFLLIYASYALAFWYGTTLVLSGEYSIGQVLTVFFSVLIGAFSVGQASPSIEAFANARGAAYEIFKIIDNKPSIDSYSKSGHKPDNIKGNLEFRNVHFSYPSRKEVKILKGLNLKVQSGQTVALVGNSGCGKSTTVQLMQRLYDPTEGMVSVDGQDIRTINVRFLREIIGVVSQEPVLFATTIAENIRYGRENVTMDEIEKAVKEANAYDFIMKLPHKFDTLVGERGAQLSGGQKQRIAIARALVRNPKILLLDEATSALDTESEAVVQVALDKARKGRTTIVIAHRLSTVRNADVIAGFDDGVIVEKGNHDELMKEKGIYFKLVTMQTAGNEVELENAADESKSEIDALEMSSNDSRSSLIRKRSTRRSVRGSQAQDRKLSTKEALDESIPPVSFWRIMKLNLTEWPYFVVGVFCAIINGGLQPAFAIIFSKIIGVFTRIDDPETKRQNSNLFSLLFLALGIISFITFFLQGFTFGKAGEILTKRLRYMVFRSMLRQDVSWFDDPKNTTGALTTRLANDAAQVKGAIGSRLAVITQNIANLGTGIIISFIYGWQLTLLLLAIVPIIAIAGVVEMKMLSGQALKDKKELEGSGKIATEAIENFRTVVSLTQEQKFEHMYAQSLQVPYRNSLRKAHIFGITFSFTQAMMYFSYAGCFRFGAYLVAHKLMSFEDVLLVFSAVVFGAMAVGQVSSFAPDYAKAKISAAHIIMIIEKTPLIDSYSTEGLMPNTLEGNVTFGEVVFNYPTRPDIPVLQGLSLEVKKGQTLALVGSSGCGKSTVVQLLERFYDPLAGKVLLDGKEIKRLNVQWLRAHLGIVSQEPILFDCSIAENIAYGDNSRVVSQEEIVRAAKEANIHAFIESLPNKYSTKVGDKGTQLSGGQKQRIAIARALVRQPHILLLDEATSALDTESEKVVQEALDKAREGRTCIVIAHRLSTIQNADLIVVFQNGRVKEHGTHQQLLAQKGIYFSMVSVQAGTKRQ
molecule,measurement,setting,value
CC(=O)O[C@H]1C(=O)[C@@]2(C)[C@H]([C@H](OC(=O)c3ccccc3)[C@]3(O)C[C@H](OC(=O)[C@H](O)[C@@H](NC(=O)c4ccccc4)c4ccccc4)C(C)=C1C3(C)C)[C@]1(OC(C)=O)CO[C@@H]1C[C@@H]2O [[^3H]-paclitaxel],level of [3H]-paclitaxel in KB-C2 lower than in KB-3-1,ABCB1 in KB-C2 cells [1],approximately 100 fold
same,decrease of intracellular [3H]-paclitaxel (efflux),ABCB1 in KB-C2 cells [2],about 50%
"CC(=O)O[C@H]1C(=O)[C@@]2(C)[C@H]([C@H](OC(=O)c3ccccc3)[C@]3(O)C[C@H](OC(=O)[C@H](O)[C@@H](NC(=O)c4ccccc4)c4ccccc4)C(C)=C1C3(C)C)[C@]1(OC(C)=O)CO[C@@H]1C[C@@H]2O [Paclitaxel, paclitaxel]",IC50,KB-3-1 cells [3]; Homo sapiens,2 ± 0.7 nM
same,IC50,HEK293/pcDNA3.1 cells; Homo sapiens,1450 ± 121 nM
same,IC50,HEK293/ABCB1 cells,30900 ± 4660 nM
"COc1cccc2c1C(=O)c1c(O)c3c(c(O)c1C2=O)C[C@@](O)(C(=O)CO)C[C@@H]3O[C@H]1C[C@H](N)[C@H](O)[C@H](C)O1 [Doxorubicin, doxorubicin]",IC50,KB-3-1 cells [3]; Homo sapiens,1190 ± 279 nM
same,IC50 in ABCB1-overexpressing cells compared with parental cells,[4],significantly higher than those of their parental cells
same,IC50,"[4]; Homo sapiens, KB-C2, read-out: IC50 of anticancer drug alone",69800 ± 4640 nM
same,IC50,HEK293/ABCB1 cells,31200 ± 5410 nM
"N.N.[Cl][Pt][Cl] [Cisplatin, cisplatin]",IC50,KB-3-1 cells [3],1790 ± 476 nM
same,IC50,HEK293/pcDNA3.1 cells,2210 ± 541 nM
FFRKVLKLIRKIWR [HX-12C],IC50,KB-3-1 cells [5],7530 nM
same,effect on ATPase activity of ABCB1,ABCB1; 0 to 40 μM,stimulated ABCB1 ATPase activity; also recorded: can stimulate the ATPase activity of ABCB1 in a concentration-dependent manner
same,maximal stimulation of ABCB1 ATPase activity,"ABCB1; peptide 0 to 40 μM, 37°C, 20 min, vanadate-sensitive, three independent experiments",4.7 fold of the basic activity
